Laboratory results published in ChEMBL document CHEMBL1131356, “New generation dopaminergic agents. 2. Discovery of 3-OH-phenoxyethylamine and 3-OH-N1-phenylpiperazine dopaminergic templates” (Bioorg Med Chem Lett, 1998).

Tests used:
D(4) dopamine receptor [1] = target: T1, D(4) dopamine receptor (Homo sapiens, UniProt P21917); experiment: Binding affinity towards human cloned dopamine (hD4.4) receptor expressed in CHO cells using [3H]spiperone as radioligand; assay type: cell-based
T1 sequence (P21917 whole entry): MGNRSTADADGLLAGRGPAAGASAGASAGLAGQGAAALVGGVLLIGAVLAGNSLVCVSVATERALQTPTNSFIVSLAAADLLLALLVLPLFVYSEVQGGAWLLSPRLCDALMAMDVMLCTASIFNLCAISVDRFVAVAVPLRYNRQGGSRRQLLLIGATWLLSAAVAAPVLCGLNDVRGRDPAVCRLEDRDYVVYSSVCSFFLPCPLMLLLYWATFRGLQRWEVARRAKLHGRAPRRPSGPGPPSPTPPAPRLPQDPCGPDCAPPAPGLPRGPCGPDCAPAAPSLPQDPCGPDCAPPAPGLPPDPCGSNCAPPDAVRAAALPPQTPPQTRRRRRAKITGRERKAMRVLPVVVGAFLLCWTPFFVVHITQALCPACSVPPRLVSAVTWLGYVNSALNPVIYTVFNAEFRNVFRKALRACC

D(2) dopamine receptor [2] = target: T2, D(2) dopamine receptor (Rattus norvegicus, UniProt P61169)
T2 sequence (P61169 whole entry): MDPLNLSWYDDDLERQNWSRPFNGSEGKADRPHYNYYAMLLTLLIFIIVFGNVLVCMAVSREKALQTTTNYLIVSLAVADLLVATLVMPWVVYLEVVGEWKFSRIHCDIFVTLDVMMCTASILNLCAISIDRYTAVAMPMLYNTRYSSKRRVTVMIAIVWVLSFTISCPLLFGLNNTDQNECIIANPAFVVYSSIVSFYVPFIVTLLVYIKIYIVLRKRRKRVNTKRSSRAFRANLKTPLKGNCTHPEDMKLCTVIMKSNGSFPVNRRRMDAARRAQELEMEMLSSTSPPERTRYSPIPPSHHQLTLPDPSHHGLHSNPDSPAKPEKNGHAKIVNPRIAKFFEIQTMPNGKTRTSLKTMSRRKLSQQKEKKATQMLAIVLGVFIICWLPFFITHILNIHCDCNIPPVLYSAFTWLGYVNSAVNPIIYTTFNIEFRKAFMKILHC
Description: Agonistic activity towards dopamine D2 receptor using radioligand [3H]quinpirole in rat striatal membranes

D(3) dopamine receptor = D(3) dopamine receptor (Homo sapiens, UniProt P35462); experiment: biochemical
Chain of D(3) dopamine receptor (P35462 whole entry): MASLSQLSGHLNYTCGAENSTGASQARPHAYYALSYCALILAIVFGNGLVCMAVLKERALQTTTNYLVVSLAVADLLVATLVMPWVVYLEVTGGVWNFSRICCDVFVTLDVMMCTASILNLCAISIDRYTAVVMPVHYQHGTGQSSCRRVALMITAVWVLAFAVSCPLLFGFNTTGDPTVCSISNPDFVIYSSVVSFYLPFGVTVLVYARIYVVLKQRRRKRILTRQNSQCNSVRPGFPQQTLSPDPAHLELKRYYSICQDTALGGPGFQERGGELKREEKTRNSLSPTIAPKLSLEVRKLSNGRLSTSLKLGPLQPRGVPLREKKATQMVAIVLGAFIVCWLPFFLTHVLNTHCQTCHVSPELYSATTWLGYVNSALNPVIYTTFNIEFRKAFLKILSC
Description: Binding affinity towards human cloned dopamine (hD3) receptor expressed in CHO cells using [3H]spiperone as radioligand

D(2) dopamine receptor [3] = target: D(2) dopamine receptor (Homo sapiens, UniProt P14416); experiment: biochemical
Chain of D(2) dopamine receptor (Homo sapiens, UniProt P14416) (P14416 whole entry): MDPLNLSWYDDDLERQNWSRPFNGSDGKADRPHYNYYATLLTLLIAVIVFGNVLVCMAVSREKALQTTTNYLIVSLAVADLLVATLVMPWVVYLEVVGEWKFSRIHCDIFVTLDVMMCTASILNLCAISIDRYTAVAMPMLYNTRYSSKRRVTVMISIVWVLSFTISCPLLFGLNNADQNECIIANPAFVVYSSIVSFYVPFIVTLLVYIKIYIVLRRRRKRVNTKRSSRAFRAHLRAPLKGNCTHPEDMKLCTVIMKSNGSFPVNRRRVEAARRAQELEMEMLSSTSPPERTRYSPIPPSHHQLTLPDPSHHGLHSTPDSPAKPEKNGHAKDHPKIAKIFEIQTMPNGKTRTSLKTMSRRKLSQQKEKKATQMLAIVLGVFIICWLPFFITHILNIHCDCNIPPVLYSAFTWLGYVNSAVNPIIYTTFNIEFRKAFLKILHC
Description: Binding affinity towards human cloned dopamine (hD2s) receptors expressed in CHO cell membranes using [3H]spiperone

D(4) dopamine receptor [4] = target: T1, D(4) dopamine receptor; experiment: Binding affinity towards human cloned Dopamine receptor D4.4 expressed in CHO cells using [3H]spiperone as radioligand; assay type: cell-based
D(2) dopamine receptor [5] = target: T2, D(2) dopamine receptor; remark: listed apart in the source
Description: Antagonistic activity towards dopamine D2 receptor using radioligand [3H]spiperone in rat striatal membranes

[6] = target: T3, 5-hydroxytryptamine receptor 1A (Mus musculus, UniProt Q64264); experiment: Binding affinity for 5-hydroxytryptamine 1A receptor
T3 sequence (Q64264 whole entry): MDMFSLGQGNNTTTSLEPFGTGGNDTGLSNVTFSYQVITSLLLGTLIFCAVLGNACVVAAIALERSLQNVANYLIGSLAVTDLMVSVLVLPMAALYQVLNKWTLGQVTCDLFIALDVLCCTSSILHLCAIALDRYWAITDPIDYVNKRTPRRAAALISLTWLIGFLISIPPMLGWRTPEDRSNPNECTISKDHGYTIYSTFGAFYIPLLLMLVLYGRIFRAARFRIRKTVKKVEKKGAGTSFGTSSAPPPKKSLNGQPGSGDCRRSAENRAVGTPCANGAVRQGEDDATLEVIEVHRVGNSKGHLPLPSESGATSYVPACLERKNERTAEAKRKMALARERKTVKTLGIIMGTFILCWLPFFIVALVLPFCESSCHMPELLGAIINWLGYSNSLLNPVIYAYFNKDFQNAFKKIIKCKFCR

[7] = target: T4, Adrenergic receptor alpha-1 (Homo sapiens, UniProt P35348+P25100+P35368); experiment: Binding affinity for Alpha-1 adrenergic receptor; assay type: protein assay
T4 sequence (P35348 whole entry): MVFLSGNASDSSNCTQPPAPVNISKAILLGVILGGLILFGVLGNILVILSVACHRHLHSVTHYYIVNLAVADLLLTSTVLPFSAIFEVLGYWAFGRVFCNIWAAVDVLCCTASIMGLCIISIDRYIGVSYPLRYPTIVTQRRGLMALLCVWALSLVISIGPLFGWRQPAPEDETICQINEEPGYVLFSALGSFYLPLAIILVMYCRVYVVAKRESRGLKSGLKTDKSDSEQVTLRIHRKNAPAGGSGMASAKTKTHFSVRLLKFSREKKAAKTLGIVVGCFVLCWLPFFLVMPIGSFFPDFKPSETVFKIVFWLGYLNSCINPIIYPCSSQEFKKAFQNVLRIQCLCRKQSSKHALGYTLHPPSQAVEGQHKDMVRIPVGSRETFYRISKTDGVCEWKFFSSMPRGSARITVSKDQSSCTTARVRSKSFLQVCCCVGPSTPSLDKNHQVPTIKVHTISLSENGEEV
T4 sequence (P25100 whole entry): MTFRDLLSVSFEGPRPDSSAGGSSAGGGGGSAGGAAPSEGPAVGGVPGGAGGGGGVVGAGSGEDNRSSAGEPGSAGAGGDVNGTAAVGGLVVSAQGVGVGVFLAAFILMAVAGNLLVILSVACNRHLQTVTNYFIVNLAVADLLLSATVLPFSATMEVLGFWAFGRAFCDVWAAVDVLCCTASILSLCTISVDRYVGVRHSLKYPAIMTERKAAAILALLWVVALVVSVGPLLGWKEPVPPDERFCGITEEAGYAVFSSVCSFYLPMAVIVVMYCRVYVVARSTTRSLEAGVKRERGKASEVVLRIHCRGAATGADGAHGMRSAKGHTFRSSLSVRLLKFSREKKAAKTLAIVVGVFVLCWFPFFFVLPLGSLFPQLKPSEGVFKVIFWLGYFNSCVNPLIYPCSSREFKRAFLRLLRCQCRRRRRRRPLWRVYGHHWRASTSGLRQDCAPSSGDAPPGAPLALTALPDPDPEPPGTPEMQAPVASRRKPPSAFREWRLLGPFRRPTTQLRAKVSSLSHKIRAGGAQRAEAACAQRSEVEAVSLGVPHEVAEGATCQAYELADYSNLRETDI
T4 sequence (P35368 whole entry): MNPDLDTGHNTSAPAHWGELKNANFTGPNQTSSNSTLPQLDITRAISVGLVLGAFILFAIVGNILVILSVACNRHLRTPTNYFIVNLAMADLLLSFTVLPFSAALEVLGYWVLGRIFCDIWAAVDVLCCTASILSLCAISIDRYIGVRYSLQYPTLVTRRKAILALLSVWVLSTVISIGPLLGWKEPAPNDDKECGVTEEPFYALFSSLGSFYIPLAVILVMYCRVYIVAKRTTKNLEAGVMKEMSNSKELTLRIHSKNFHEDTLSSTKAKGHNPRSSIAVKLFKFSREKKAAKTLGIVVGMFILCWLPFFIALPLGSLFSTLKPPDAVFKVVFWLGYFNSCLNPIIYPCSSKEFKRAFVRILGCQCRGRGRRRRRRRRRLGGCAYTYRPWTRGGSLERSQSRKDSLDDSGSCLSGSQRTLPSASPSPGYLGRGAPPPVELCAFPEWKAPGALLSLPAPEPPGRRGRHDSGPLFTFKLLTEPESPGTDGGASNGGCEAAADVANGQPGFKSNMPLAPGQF

Mus musculus = experiment: Dose required to inhibit locomotor activity in mice when administered subcutaneously; assay type: functional; conditions: sc

| SMILES | Ki (D(4) dopamine receptor [1]) [nM] | Ki (D(2) dopamine receptor [2]) [nM] | Ki (D(3) dopamine receptor) [nM] | Ki (D(2) dopamine receptor [3]) [nM] | Ki (D(4) dopamine receptor [4]) [nM] | Ki (D(2) dopamine receptor [5]) [nM] | Ki [6] [nM] | Ki [7] [µM] | ED50 (Mus musculus) [mg/kg] |
| --- | --- | --- | --- | --- | --- | --- | --- | --- | --- |
| Oc1ccc(OCCNCc2ccccc2)cc1 | 277 | 113 | > 5000 | > 10000 |  |  |  |  |  |
| Oc1ccccc1N1CCN(Cc2ccccc2)CC1 |  | 64.7 | > 400 | > 300 | > 400 | 118 |  |  |  |
| c1ccc(CN2CCN(c3ccccc3)CC2)cc1 |  | 16.2 | > 400 | > 300 | 267 | 124 |  |  |  |
| Oc1ccccc1OCCNCc1ccccc1 | 297 | 9.6 | 281 | 456 |  | 191 |  |  |  |
| CS(=O)(=O)Nc1cc(OCCNCc2cccs2)ccc1F |  | 19.7 | > 400 | > 300 | > 400 | 11.7 |  |  |  |
| CS(=O)(=O)Nc1cc(OCCNCc2cccs2)ccc1Cl | 137 | 2.6 | 27.8 | 9 |  | 6 |  |  |  |
| Oc1ccc(N2CCN(Cc3ccccc3)CC2)cc1 |  | 120 | > 400 | > 300 | 91.8 |  |  |  |  |
| c1ccc(CNCCOc2ccccc2)cc1 | 94 | 68.4 | > 400 | > 300 |  | 241 |  |  |  |
| Nc1cc(OCCNCc2ccccc2)ccc1Cl | 27.2 | 237 | > 1000 | > 1000 |  |  |  |  |  |
| CS(=O)(=O)Nc1cc(OCCNCc2ccccc2)ccc1F |  | 7.9 | > 5000 | > 10000 |  | 24.1 |  |  |  |
| Oc1cccc(OCCNCc2ccccc2)c1 | 80.6 | 3.6 | 11 | 75.8 |  | 101 | 1780 | 5.291 | 0.08 |
| Oc1cccc(N2CCN(Cc3ccccc3)CC2)c1 |  |  | 28.9 |  | > 400 |  | > 1000 | > 1 | 1.4 |
| CS(=O)(=O)Nc1cccc(OCCNCc2ccccc2)c1 | 500 | 4.4 | 42.5 | 37.6 |  | 29.3 |  |  |  |
| CS(=O)(=O)Nc1cc(OCCNCc2ccccc2)ccc1Cl |  | 1.6 | 11 | 75.8 |  | 3 |  |  |  |
